{"source": "PubChem BioAssay AID1963451", "about": "(Molecular Pharmacology Branch, DTP, NCI, 2024);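 also: spheroids exposed to compounds for 7 days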;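 as to viability, T/C: 100% = DMSO vehicle control wells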", "test_system": "521955-158-R6-J3-PDC complex spheroid growth, % test/control", "assay": "Anticancer human tumor 521955-158-R6-J3-PDC patient-derived pancreatic carcinoma cell line growth inhibition [Asc]", "settings": "for IC50: curve of first compound; for viability, T/C: stronger effect = lower value", "in_short": "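Tumor cells were grown as multicellular spheroids with stromal HUVEC and mesenchymal stem cells and treated singly or in combination. Concentrations fell in half-log steps from the clinical Cmax, or from 10 microM where none was known.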"}
{"smiles": "C#Cc1c(F)ccc2cc(O)cc(-c3ncc4c(N5CC6CCC(C5)N6)nc(OCC56CCCN5CC(F)C6)nc4c3F)c12", "note": "(configuration not stated) + CNC(C)C(=O)NC1CN(S(=O)(=O)c2cccc(S(=O)(=O)N3CCC4CCC(C(=O)NC(c5ccccc5)c5ccccc5)N4C(=O)C(NC(=O)C(C)NC)C3)c2)CCC2CCC(C(=O)NC(c3ccccc3)c3ccccc3)N2C1=O", "values": [{"measurement": "IC50", "setting": "second compound 0.00316 µM", "value": 115, "unit": "nM"}, {"measurement": "IC50", "setting": "second compound 0.01 µM", "value": 63, "unit": "nM"}, {"measurement": "IC50", "setting": "second compound 0.0316 µM", "value": 55.9, "unit": "nM"}, {"measurement": "IC50", "setting": "second compound 0.1 µM", "value": 70.3, "unit": "nM"}, {"measurement": "IC50", "setting": "second compound 0.316 µM", "value": 42, "unit": "nM"}, {"measurement": "IC50", "setting": "second compound 1 µM", "value": "< 31.6", "unit": "nM"}, {"measurement": "viability, T/C", "setting": "second compound 0.00316 µM, first compound 0.0316 µM", "value": 57.4, "unit": "%"}, {"measurement": "viability, T/C", "setting": "second compound 0.00316 µM, first compound 0.1 µM", "value": 45.8, "unit": "%"}, {"measurement": "viability, T/C", "setting": "second compound 0.00316 µM, first compound 0.316 µM", "value": 46.8, "unit": "%"}, {"measurement": "viability, T/C", "setting": "second compound 0.00316 µM, first compound 1 µM", "value": 38.4, "unit": "%"}, {"measurement": "viability, T/C", "setting": "second compound 0.00316 µM, first compound 3.16 µM", "value": 36.3, "unit": "%"}, {"measurement": "viability, T/C", "setting": "second compound 0.00316 µM, first compound 10 µM", "value": 21.4, "unit": "%"}, {"measurement": "viability, T/C", "setting": "second compound 0.01 µM, first compound 0.0316 µM", "value": 56.6, "unit": "%"}, {"measurement": "viability, T/C", "setting": "second compound 0.01 µM, first compound 0.1 µM", "value": 44.7, "unit": "%"}, {"measurement": "viability, T/C", "setting": "second compound 0.01 µM, first compound 0.316 µM", "value": 38.4, "unit": "%"}, {"measurement": "viability, T/C", "setting": "second compound 0.01 µM, first compound 1 µM", "value": 34.7, "unit": "%"}, {"measurement": "viability, T/C", "setting": "second compound 0.01 µM, first compound 3.16 µM", "value": 37, "unit": "%"}, {"measurement": "viability, T/C", "setting": "second compound 0.01 µM, first compound 10 µM", "value": 25.1, "unit": "%"}, {"measurement": "viability, T/C", "setting": "second compound 0.0316 µM, first compound 0.0316 µM", "value": 54.9, "unit": "%"}, {"measurement": "viability, T/C", "setting": "second compound 0.0316 µM, first compound 0.1 µM", "value": 42.8, "unit": "%"}, {"measurement": "viability, T/C", "setting": "second compound 0.0316 µM, first compound 0.316 µM", "value": 42, "unit": "%"}, {"measurement": "viability, T/C", "setting": "second compound 0.0316 µM, first compound 1 µM", "value": 33.1, "unit": "%"}, {"measurement": "viability, T/C", "setting": "second compound 0.0316 µM, first compound 3.16 µM", "value": 25.6, "unit": "%"}, {"measurement": "viability, T/C", "setting": "second compound 0.0316 µM, first compound 10 µM", "value": 24.9, "unit": "%"}, {"measurement": "viability, T/C", "setting": "second compound 0.1 µM, first compound 0.0316 µM", "value": 56.5, "unit": "%"}, {"measurement": "viability, T/C", "setting": "second compound 0.1 µM, first compound 0.1 µM", "value": 46, "unit": "%"}, {"measurement": "viability, T/C", "setting": "second compound 0.1 µM, first compound 0.316 µM", "value": 38.7, "unit": "%"}, {"measurement": "viability, T/C", "setting": "second compound 0.1 µM, first compound 1 µM", "value": 38.7, "unit": "%"}, {"measurement": "viability, T/C", "setting": "second compound 0.1 µM, first compound 3.16 µM", "value": 33.6, "unit": "%"}, {"measurement": "viability, T/C", "setting": "second compound 0.1 µM, first compound 10 µM", "value": 24.8, "unit": "%"}, {"measurement": "viability, T/C", "setting": "second compound 0.316 µM, first compound 0.0316 µM", "value": 54.4, "unit": "%"}, {"measurement": "viability, T/C", "setting": "second compound 0.316 µM, first compound 0.1 µM", "value": 37, "unit": "%"}, {"measurement": "viability, T/C", "setting": "second compound 0.316 µM, first compound 0.316 µM", "value": 33.1, "unit": "%"}, {"measurement": "viability, T/C", "setting": "second compound 0.316 µM, first compound 1 µM", "value": 29.7, "unit": "%"}, {"measurement": "viability, T/C", "setting": "second compound 0.316 µM, first compound 3.16 µM", "value": 33.6, "unit": "%"}, {"measurement": "viability, T/C", "setting": "second compound 0.316 µM, first compound 10 µM", "value": 18.3, "unit": "%"}, {"measurement": "viability, T/C", "setting": "second compound 1 µM, first compound 0.0316 µM", "value": 44.9, "unit": "%"}, {"measurement": "viability, T/C", "setting": "second compound 1 µM, first compound 0.1 µM", "value": 41.7, "unit": "%"}, {"measurement": "viability, T/C", "setting": "second compound 1 µM, first compound 0.316 µM", "value": 43.5, "unit": "%"}, {"measurement": "viability, T/C", "setting": "second compound 1 µM, first compound 1 µM", "value": 30.7, "unit": "%"}, {"measurement": "viability, T/C", "setting": "second compound 1 µM, first compound 3.16 µM", "value": 30.4, "unit": "%"}, {"measurement": "viability, T/C", "setting": "second compound 1 µM, first compound 10 µM", "value": 21.9, "unit": "%"}]}
